These are literature values, as cited in US8957218B2, “2-oxo-1-imidazolidinyl imidazothiadiazole derivatives” (UCB Pharma S.A., priority 2011, dated 2015).

The data set relates to epilepsy (seizure control). Particulars: Gower A. J. et al., Eur. J. Pharmacol. (1992), 222, 193-203.

As to `CC[C@H](C(N)=O)N1CCCC1=O` [(R)-α-ethyl-2-oxo-1-pyrrolidine acetamide], the “activity in the treatment of epilepsy (seizure control)” value is on record as “completely lacks activity”.
